Patent US20200390781A1, “CERTAIN (2S)-N-[(1S)-1-CYANO-2-PHENYLETHYL]-1,4-OXAZEPANE-2-CARBOXAMIDES FOR TREATING ANCA ASSOCIATED VASCULITIDES” (INSMED INCORPORATED, priority 2018, published 2020)

Legend:
Type in all cases: cell-based, human
[1] = test system: surface proteinase 3 (PR3); test: Surface PR3 expression by flow cytometry in neutrophils differentiated in the presence of INS1007; conditions: for percentage of cells with no detectable surface PR3 expression: untreated approximately 30-40%, FIG. 2
Experimental: (§1) To evaluate the pharmacological effects of INS1007 on surface PR3 expression, total PR3 expression, and NSP activity, stem cells were differentiated to neutrophils in the presence of INS1007 at increasing concentrations. Primary bone marrow (BM) or umbilical cord blood (UC) derived CD34^+ neutrophil progenitor cells (AllCells; Alameda, Calif.) were cultured for 7 days in STEMSPAN™ SFEM media (Stemcell Technologies; Tukwila, Wash.) supplemented with recombinant human Stem Cell Factor (Peprotech; Rocky Hill, N.J.) and recombinant human IL-3 (Peprotech). The cells were differentiated in culture for another 7 days in STEMSPAN® SFEM media (Stemcell Technologies) with recombinant human Granulocyte Colony Stimulating Factor (Peprotech), plus increasing concentrations of INS1007 (0-10 μM). At the end of the differentiation/treatment period, cells were harvested for analysis.
(§2) Differentiated neutrophils were harvested for flow cytometry to quantify PR3 expression on the surface of neutrophils (FIGS. 1 and 2) and neutrophil total PR3 expression (FIG. 3).
After harvest, the cells were resuspended in FACS staining buffer and Fc receptors were blocked for 30 min at 4° C. Cells were stained for 30 min with a mouse anti-PR3 monoclonal antibody (Abcam: Cambridge, Mass.) or a mouse monoclonal IgG isotype control (Abcam), followed by a Cy5-conjugated goat anti-mouse IgG secondary antibody (Abcam), and then analyzed using a GUAVA® EASYCYTEI^M 6HT flow cytometer (Millipore; Billerica, Mass.).

[2] = test system: neutrophil elastase (NE); test: NE activity in lysates of neutrophils differentiated in the presence of INS1007; conditions: highest concentration tested (10 μM); FIG. 5
Experimental: (§3) To evaluate the pharmacological effects of INS1007 on surface PR3 expression, total PR3 expression, and NSP activity, stem cells were differentiated to neutrophils in the presence of INS1007 at increasing concentrations. Primary bone marrow (BM) or umbilical cord blood (UC) derived CD34^+ neutrophil progenitor cells (AllCells; Alameda, Calif.) were cultured for 7 days in STEMSPAN™ SFEM media (Stemcell Technologies; Tukwila, Wash.) supplemented with recombinant human Stem Cell Factor (Peprotech; Rocky Hill, N.J.) and recombinant human IL-3 (Peprotech). […]
(§4) Neutrophils in a separate aliquot of harvested neutrophils were lysed with 10% (v/v) Triton X-100 in PBS and the lysates were added to 96-well plates. Peptide substrates for NE (N-Methoxysuccinyl-Ala-Ala-Pro-Val-7-amido-4-methylcoumarin; Sigma-Aldrich; St. Louis, Mo.), for PR3 (aminobenzoyl-Val-Ala-Asp-Cys-Ala-Asp-Gln-Lys(2,4-dinitrophenyl); GenScript; Piscataway, N.J.), and for CatG (N-Succinyl-Ala-Ala-Pro-Phe p-nitroanilide; Sigma) were added, and either fluorescence or absorbance was quantified using a SYNERGY™ microplate reader (BioTek; Winooski, Vt.). […] A portion of cell lysate samples was retained for protein quantification using a PIERCE™ BCA Protein Assay Kit (Thermo Fisher) according to the manufacturer's instructions. […]

[3] = test system: total proteinase 3 (PR3); test: Total PR3 expression (surface and intracellular) by flow cytometry in differentiated neutrophils; conditions: for total PR3 levels: FIG. 3
Experimental: as §1, §2

[4] = test system: cathepsin G (CatG); test: CatG activity in lysates of neutrophils differentiated in the presence of INS1007; conditions: highest concentration tested (10 μM); data not shown
Experimental: as §3, §4

[5] = test system: proteinase 3 (PR3); test: PR3 activity in lysates of neutrophils differentiated in the presence of INS1007; conditions: highest concentration tested (10 μM); FIG. 6
Experimental: as §3, §4

[6] = test system: surface PR3; test: Fluorescence microscopy of surface PR3 on differentiated neutrophils; conditions: differentiation in the presence of 10 μM INS1007; neutrophils derived from bone marrow or umbilical cord stem cells (both cell types)
Experimental: as §1, with “At the end of the differentiation/treatment period, cells were harvested for analysis.” left out
In a separate experiment, neutrophils were harvested, stained for 30 min. with either a mouse anti-PR3 monoclonal antibody (Abcam; Cambridge, Mass.) or a mouse monoclonal IgG isotype control (Abcam), followed by a Cy5-conjugated goat anti-mouse IgG secondary antibody (Abcam), fixed in 4% formaldehyde, and mounted to glass slides with PROLONG® Diamond Antifade Mountant with DAPI (Thermo Fisher; Waltham, Mass.). Samples were imaged with an Axio fluorescence microscope (Zeiss; Oberkochen, Germany) using constant settings while imaging samples from different treatment conditions.

Cn1c(=O)oc2ccc(-c3ccc(C[C@@H](C#N)NC(=O)[C@@H]4CNCCCO4)cc3)cc21 [INS1007, (2S)—N-{(1S)-1-cyano-2-[4-(3-methyl-2-oxo-2,3-dihydro-1,3-benzoxazol-5-yl)phenyl]ethyl}-1,4-oxazepane-2-carboxamide]
percentage of cells with no detectable surface PR3 expression ([1]; neutrophils derived from bone marrow stem cells): ~80% | maximum reduction of surface PR3 expression (MFI, percent of untreated cells) ([1]; neutrophils derived from both bone marrow and umbilical cord blood stem cells, INS1007 0-10 μM, FIG. 1): greater than 60% | percentage of cells with no detectable surface PR3 expression ([1]; neutrophils derived from umbilical cord blood stem cells): more than 50% | decrease of NE activity [2]: > 90% | total PR3 levels ([3]; bone marrow stem cell-derived neutrophils, not completely concentration-dependent): significantly reduced | percentage of cells with positive total PR3 expression ([3]; neutrophils derived from either umbilical cord blood or bone marrow stem cells, FIG. 4): did not reduce | total PR3 levels ([3]; umbilical cord blood stem cell-derived neutrophils): did not reach statistically significant reduction | decrease of CatG activity [4]: greater than 75% | decrease of PR3 activity [5]: > 90% | surface PR3 (fluorescence microscopy) [6]: markedly reduced
